Source: US20070225301A1, “TREATMENT OF ACNE AND OTHER DISEASES” (Astion Inflammation ApS, priority 2006, published 2007)
Where a name gives a salt, the structure may show the parent alone.

Legend:
acne vulgaris = test: Case with treatment of acne vulgaris; type: in vivo, human; conditions: person; for Reddened inflamed area surrounding the lesion: topical treatment of acne vulgaris
Excerpt: A person was suffering from acne vulgaris characterised by comedones and some inflammatory lesions. They had previously regularly used a 5% benzoyl peroxide cream to treat the condition. During a flare up of the condition they applied a 5.0% aqueous solution of Pemirolast (potassium salt) once daily for four weeks to the areas affected. […] The treatment was followed and assessed by a physician.

IL-1α = test: Cytokine production, LPS induced human PBMC; type: cell-based; conditions: stated in words only, no value
Procedure: The inhibition of Pemirolast on cytokine production was determined using the assay “LPS induced human PBMC”.

[1] = system: arachidonic acid-induced ear inflammation; test: Arachidonic acid-induced ear-inflammation test in mice; type: in vivo, female BALB/cA mice; conditions: intraperitoneal, 30 minutes before arachidonic acid; ear oedema one hour after
Procedure: The anti-inflammatory potential of Pemirolast can be tested in “arachidonic acid-induced ear-inflammation test in mice”, a commonly employed method for screening and evaluation of antiinflammatory drugs. Dexamethasone was employed as reference compound.
The study can be performed in female BALB/cA mice from M & B A/S, DK-8680 Ry. The test substances (various concentration of Pemirolast dissolved in aqueous solutions) and the reference compound are administered intraperitoneally in volumes of 20 ml per kg body weight 30 minutes before application of arachidonic acid to the ear. All groups are then treated with 20 μl arachidonic acid, 100 mg/ml in acetone, on the right ear.
One hour after the application of arachidonic acid the mice are sacrificed, the ears cut from the tip with a punch biopsy knife (8 mm diameter) and weighed. Mean weights and standard deviations are calculated. Relative ear oedema is assessed as the weight difference between right and left ear of each mouse expressed as percent of the left ear. Percent inhibition of the relative ear oedema compared with the vehicle treated groups is calculated for the test substance and reference compound treated groups. […]

PPAR-γ = target: T1, PPAR-γ (Homo sapiens, UniProt P37231); test: Gal-4-PPAR luciferase reporter assay in HEK 293-T (Indigo Biosciences); type: cell-based; conditions: % inhibition 50, 14 hours treatment, read-out: Concentration of Pemirolast giving 50 % inhibition of PPAR-γ
T1 sequence (P37231 238-505 limits assumed): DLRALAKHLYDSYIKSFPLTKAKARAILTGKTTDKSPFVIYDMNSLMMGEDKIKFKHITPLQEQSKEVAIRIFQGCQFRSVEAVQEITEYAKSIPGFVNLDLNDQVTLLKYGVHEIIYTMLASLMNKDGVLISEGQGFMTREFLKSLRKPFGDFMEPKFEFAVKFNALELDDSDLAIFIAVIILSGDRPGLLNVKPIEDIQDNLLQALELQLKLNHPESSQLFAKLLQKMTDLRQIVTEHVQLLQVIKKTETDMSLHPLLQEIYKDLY
Procedure: (§1) The inhibitory effect of Pemirolast on PPAR was determined by Indigo Biosciences. The following assay procedure was used: Compounds were diluted in DMSO to a final concentration of […] and serial dilutions prepared. The cell line HEK 293-T was transiently transfected with Gal-4-human PPARα, γ, Gal-4-luciferase and pRL (renilla, to correct for efficiency). The cells were treated with Pemirolast or with positive controls (ciprofibrate, or rosiglitazone) for 14 hours. The cells were lysed and luciferase and renilla activity were determined.

PPAR-α = target: T2, PPAR-α (Homo sapiens, UniProt Q07869); test: as above; type: cell-based; conditions: % inhibition 50, 14 hours treatment, read-out: Concentration of Pemirolast giving 50 % inhibition of PPAR-α
T2 sequence (Q07869 200-468 limits assumed): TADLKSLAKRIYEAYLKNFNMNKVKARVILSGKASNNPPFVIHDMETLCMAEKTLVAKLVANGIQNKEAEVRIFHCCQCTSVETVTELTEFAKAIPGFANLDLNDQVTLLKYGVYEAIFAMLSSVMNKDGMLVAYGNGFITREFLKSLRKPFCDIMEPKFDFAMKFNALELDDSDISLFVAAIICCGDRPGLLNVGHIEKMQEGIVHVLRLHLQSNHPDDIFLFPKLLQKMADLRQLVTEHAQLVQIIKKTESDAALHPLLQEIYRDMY
Procedure: as §1

[2] = 5.0% aqueous solution once daily for four weeks, topical

Structure (SMILES): Cc1cccn2c(=O)c(-c3nnn[nH]3)cnc12 [Pemirolast (potassium salt)]
- Inflammatory acne lesions after treatment (acne vulgaris; [2]): completely recessed
- Scarring after treatment (acne vulgaris; [2]): without any noticeable scarring
- Reddened inflamed area surrounding the lesion (acne vulgaris): also recessed

Structure (SMILES): Cc1cccn2c(=O)c(-c3nnn[nH]3)cnc12 [Pemirolast, 9-methyl-3-(1H-tetrazol-5-yl)-4H-pyrido[1,2-a]pyrimidin-4-one]
- Inhibition of IL-1α (IL-1α): inhibits
- Effect on inflammatory reaction in the arachidonic acid treated ear [1]: significantly prevented the inflammatory reaction
- IC50 (PPAR-γ): 20 µM
- IC50 (PPAR-α): 17 µM

Structure (SMILES): O=C(OOC(=O)c1ccccc1)c1ccccc1 [benzoyl peroxide]
- Reddened inflamed area surrounding the lesion (acne vulgaris): did not remove the reddened inflamed area
